Data published in article PMC12635197, “Discovery of first-in-class inhibitors of the TRF1:TIN2 protein:protein interaction by fragment screening” (Scientific Reports, 2025).

How the values were obtained:
[1] = LC-MS analysis of original compound DMSO stock; format: physicochemical; settings: negative mode LC-MS
Source text: By measuring the R2 values of fragments with and without protein present in the sample, a strong indication of the extent of protein binding can be obtained. […] This increase in R2 was reversed upon addition of the TIN2TBM competitor. […] Nevertheless, given the strong binding activity of the fragment derivative 27 in the CPMG assay, a pure stock of 27 was synthesised and put forward for further characterisation using a quantitative LO-NMR assay to determine the dissociation constant.
Supplementary Figure 3: Negative mode LC-MS analysis of compound 25. The LC-UV
This value aligned with the molecular weight of compound 27 (251 g mol-1), conﬁrming that
(1 picture or pasted object on this page, not shown here)

[2] = molecular target: TRF1TRFH; set-up: method as in PMID 18202258; settings: ITC; read-out: dissociation constant of TIN2TBM for TRF1TRFH; cited from earlier work

stability in original screening DMSO stock [1] | Compound | Kd [2] [nM]
degraded into compound 27 | CCOc1ccc(S(=O)(=O)n2ccnc2)c2ccccc12 [Compound 25] | 
 | Ac-RHFNLAPLGRRRVQSQWASTR-CONH2 (Ac-RHFNLAPLGRRRVQSQWASTR-NH2) [TIN2TBM] | 300
